Where a chain is given by its changes, count along the chain named. “Also recorded” adds a separate entry of the source.
Key:
[1] = biological target: T1, F256A CLC-Ka (Homo sapiens, UniProt P51800, F256A); type: cell-based; settings: 200 μM NFA
T1 sequence (P51800 1-687 F256A): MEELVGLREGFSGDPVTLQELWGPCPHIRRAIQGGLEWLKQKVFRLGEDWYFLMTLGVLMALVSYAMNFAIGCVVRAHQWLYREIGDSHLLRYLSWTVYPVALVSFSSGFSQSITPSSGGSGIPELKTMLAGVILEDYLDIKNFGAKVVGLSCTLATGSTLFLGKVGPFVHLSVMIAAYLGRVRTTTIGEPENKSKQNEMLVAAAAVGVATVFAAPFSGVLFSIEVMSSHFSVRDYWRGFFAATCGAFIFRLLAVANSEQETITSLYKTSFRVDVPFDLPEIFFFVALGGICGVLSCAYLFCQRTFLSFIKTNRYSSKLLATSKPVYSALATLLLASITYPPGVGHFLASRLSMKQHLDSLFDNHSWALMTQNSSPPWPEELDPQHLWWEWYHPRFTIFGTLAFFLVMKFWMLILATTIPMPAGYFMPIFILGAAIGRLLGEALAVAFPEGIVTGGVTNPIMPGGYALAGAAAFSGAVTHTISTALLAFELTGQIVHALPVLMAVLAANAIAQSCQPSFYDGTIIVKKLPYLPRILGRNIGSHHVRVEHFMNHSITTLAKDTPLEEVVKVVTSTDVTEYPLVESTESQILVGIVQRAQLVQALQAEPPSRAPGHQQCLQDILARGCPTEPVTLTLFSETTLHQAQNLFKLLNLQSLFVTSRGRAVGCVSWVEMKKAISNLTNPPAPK
T1 sequence (Q8WZ55 1-320 Y98A partner): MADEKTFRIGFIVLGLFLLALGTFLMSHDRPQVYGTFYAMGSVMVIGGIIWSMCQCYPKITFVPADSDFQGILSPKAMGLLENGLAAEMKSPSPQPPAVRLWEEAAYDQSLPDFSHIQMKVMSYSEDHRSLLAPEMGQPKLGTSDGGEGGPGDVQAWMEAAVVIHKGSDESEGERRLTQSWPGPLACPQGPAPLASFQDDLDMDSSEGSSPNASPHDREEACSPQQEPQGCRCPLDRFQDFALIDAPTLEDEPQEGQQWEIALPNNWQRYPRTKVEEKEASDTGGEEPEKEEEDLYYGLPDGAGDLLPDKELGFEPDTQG

[2] = biological target: T2, F256A CLC-K1 (Rattus norvegicus, UniProt Q06393, F256A); assay: NFA effect on F256A CLC-K1 without barttin, voltage clamp in Xenopus oocytes; type: cell-based; settings: expressed without barttin
T2 sequence (Q06393 1-687 F256A): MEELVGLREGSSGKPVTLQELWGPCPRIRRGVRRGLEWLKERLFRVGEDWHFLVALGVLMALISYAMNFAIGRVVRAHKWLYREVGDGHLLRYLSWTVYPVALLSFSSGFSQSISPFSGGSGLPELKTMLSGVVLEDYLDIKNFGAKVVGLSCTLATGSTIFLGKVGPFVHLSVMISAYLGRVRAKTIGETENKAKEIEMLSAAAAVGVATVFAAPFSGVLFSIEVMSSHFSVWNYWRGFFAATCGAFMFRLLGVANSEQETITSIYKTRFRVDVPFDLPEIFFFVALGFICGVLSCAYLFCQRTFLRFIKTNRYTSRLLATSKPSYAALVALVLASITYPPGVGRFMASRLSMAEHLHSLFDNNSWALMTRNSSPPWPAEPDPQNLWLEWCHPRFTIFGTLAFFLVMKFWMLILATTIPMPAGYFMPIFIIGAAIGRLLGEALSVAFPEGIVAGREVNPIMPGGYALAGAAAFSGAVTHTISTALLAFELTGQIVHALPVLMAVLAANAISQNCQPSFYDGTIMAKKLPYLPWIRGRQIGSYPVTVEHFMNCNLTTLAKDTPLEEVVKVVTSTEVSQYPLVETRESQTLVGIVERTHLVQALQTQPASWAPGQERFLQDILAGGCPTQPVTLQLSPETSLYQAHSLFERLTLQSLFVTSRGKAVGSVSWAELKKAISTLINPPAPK

[3] = biological target: T3, F256A CLC-K1/barttin (Rattus norvegicus, UniProt Q06393, F256A); assay: NFA effect on F256A CLC-K1/barttin, voltage clamp in Xenopus oocytes; type: cell-based
T3 sequence (Q06393 1-687 F256A): T2 sequence (Q06393 1-687 F256A)
T3 sequence (Q8WZ55 1-320 Y98A partner): T1 sequence (Q8WZ55 1-320 Y98A partner)

[4] = system: human CLC-Ks; settings: HEK293 cells; all concentrations tested, from 0.3 to 2000 μM; cited from earlier work
[5] = biological target: T4, F256A CLC-Ka/barttin (Homo sapiens, UniProt P51800, F256A); assay: NFA effect on F256A CLC-Ka/barttin, whole-cell patch clamp in HEK293 cells; type: cell-based
T4 sequence (P51800 1-687 F256A): T1 sequence (P51800 1-687 F256A)
T4 sequence (Q8WZ55 1-320 partner): T1 sequence (Q8WZ55 1-320 Y98A partner) with A98Y

[6] = system: rat CLC-K1; settings: HEK293 cells; all concentrations tested, from 0.3 to 2000 μM; cited from earlier work

open probability after potentiation by NFA ([1]; judged from variance–mean plots without curvature): below 0.5
effect on single channel conductance ([1]; −100 mV and 60 mV, noise analysis): does not change significantly
effect of NFA on currents [2]: no potentiation
effect of NFA on currents ([3]; 10 μM NFA, steady state currents not increased): transient potentiation
maximal potentiation (I1/I0) ([3]; transient potentiation extrapolated by single-exponential function): around 1.9 fold
effect of NFA on currents ([5]; 20 μM NFA): increased
effect of NFA on currents ([5]; 500 μM NFA): inhibited
[NFA]ext up to which potentiation is seen ([5]; inhibition at higher [NFA]ext): up to 200 μM
SMILES: O=C(O)c1cccnc1Nc1cccc(C(F)(F)F)c1 [NFA, niflumic acid]
effect of NFA on currents [4]: inhibited; also recorded: no longer potentiated
effect of NFA on currents [6]: inhibited

Source: publication PMC4331650 (Biochimica et Biophysica Acta, 2014)
